Patent publication US20120302555A1, “METHOD OF TREATMENT USING EPROSARTAN” (priority 2008, published 2012)
Where a name gives a salt, the structure may show the parent alone.

Key:
[1] = Thermodynamic stability of polymorphic forms; format: physicochemical
Description: Crystalline eprosartan acid exists in two different polymorphic forms—the α (alpha) and β (beta) forms. The a polymorphic form of eprosartan acid has the highest thermodynamic stability of up to 200° C. Although the Examples use the α form of eprosartan acid, the β form of eprosartan acid can also be used in the same way.

[2] = in vivo; cited from earlier work

Row | Compound | highest thermodynamic stability of up to [1] | variable and mean absolute bioavailability [2]
1 | CCCCc1ncc(/C=C(\Cc2cccs2)C(=O)O)n1Cc1ccc(C(=O)O)cc1 [a polymorphic form of eprosartan acid] | up to 200 °C | 
2 | CCCCc1ncc(/C=C(\Cc2cccs2)C(=O)O)n1Cc1ccc(C(=O)O)cc1 [eprosartan mesylate] |  | approximately 13%
